In paper PMC6212553, “Baicalein Enhances the Oral Bioavailability and Hepatoprotective Effects of Silybin Through the Inhibition of Efflux Transporters BCRP and MRP2” (Frontiers in Pharmacology, 2018):
Values belong to the compound of their own block, whether it stands above or below them.

Experiments:
MRP2 = target: T1, MRP2 (Homo sapiens, UniProt Q92887); experiment: Bidirectional transport of CDCFDA in MDCKII-MRP2 cells; assay type: cell-based
T1 construct: host or cells: MDCK II (canine kidney) cells transfected with MRP2
T1 sequence (Q92887 whole entry): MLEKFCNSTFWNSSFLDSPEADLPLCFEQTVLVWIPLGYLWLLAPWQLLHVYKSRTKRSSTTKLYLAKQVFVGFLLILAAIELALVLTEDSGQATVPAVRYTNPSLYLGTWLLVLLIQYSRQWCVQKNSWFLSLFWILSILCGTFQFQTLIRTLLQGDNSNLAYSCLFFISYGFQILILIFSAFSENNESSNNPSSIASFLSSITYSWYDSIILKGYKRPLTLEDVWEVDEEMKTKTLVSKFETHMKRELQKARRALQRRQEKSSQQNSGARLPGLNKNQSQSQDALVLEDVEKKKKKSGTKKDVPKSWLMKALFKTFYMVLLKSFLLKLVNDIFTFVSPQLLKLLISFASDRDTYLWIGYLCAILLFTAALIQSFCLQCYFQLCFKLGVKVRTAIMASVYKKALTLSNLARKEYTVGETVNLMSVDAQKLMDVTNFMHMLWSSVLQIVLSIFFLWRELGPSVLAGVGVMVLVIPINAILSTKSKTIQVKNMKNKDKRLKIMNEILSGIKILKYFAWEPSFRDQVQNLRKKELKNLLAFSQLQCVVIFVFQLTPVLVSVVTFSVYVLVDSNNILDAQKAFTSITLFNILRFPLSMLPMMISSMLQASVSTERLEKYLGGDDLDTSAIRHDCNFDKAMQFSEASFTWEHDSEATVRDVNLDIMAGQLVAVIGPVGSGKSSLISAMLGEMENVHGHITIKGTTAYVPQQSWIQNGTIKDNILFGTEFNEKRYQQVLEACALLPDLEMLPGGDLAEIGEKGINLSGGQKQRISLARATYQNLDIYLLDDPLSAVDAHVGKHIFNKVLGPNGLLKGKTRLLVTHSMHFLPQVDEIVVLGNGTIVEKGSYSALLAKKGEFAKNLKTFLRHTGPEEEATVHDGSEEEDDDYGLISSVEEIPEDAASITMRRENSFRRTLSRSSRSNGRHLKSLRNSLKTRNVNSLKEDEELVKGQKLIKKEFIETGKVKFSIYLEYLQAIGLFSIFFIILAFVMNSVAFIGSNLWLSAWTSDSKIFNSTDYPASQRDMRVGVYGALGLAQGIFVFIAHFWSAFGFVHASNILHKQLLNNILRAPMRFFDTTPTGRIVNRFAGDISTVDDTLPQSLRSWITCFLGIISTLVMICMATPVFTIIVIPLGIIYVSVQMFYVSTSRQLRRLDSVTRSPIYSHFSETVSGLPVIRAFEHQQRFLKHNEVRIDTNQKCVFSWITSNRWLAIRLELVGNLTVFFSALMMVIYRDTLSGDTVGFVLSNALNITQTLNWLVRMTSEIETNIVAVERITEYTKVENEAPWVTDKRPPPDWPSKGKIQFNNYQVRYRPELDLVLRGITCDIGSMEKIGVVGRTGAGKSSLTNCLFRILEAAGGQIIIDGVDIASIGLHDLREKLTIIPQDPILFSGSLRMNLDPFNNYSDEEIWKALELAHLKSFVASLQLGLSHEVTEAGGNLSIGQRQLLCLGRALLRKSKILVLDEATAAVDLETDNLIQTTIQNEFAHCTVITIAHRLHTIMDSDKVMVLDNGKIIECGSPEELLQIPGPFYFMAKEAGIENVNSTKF
Experimental: Human colon epithelial cell line (Caco-2) was purchased from American Type Culture Collection (Manassas, VA, United States) and frozen at -80°C. Wild type MDCK II, MDR1-MDCK II, BCRP-MDCK II, and MRP2-MDCK II cells were kindly supplied by the Netherlands Cancer Institute (Amsterdam, Netherlands). Transport study was carried out with Caco-2 cells, and MDCK II cells were transfected using a previously established method with slight modifications ([Yuan et al., 2017]). The Caco-2 cells were cultured at 37°C/5% CO2 in Dulbecco’s modified Eagle’s medium (DMEM) supplemented with 10% fetal bovine serum, 1% nonessential amino acids, and 1% penicillin-streptomycin. […]
Bidirectional transport assays for Caco-2 and MDCK II cells were performed by adding silybin (10 μM) in assay buffer into either the apical (AP; A-to-B) or basolateral (BL; B-to-A) chamber, and each 100 μl sample was collected at 30, 60, 90, 120, and 180 min. […] The fluorescence intensity of the sample collected from the AP or BL side was immediately detected in a 96-well black plate by the Microplate UV/VIS spectrophotometer (TECAN Infinite M200 PRO, Männedorf, Switzerland). […]
(§1) where dQ/dt (mM/s) represents the rate of permeation of the drug across the cells, C0 (mM) refers to the concentration in the donor compartment at time zero calculated from dosing solution, and A (cm^2) refers to the area of the cell monolayer. […]

Caco-2 cells = experiment: Bidirectional transport of silybin across Caco-2 cell monolayers; assay type: in vitro ADME, Human; conditions: Caco-2 monolayers, silybin 10 μM
Experimental: Human colon epithelial cell line (Caco-2) was purchased from American Type Culture Collection (Manassas, VA, United States) and frozen at -80°C. Wild type MDCK II, MDR1-MDCK II, BCRP-MDCK II, and MRP2-MDCK II cells were kindly supplied by the Netherlands Cancer Institute (Amsterdam, Netherlands). Transport study was carried out with Caco-2 cells, and MDCK II cells were transfected using a previously established method with slight modifications ([Yuan et al., 2017]). The Caco-2 cells were cultured at 37°C/5% CO2 in Dulbecco's modified Eagle's medium (DMEM) supplemented with 10% fetal bovine serum, 1% nonessential amino acids, and 1% penicillin-streptomycin. The Caco-2 cells were seeded onto polyester filter membranes in a 12-well Transwell® plate (Corning Costar Co., NY, United States) with 0.6 × 10^5 cells/cm^2. The monolayer cells were used for transport assays between 21 and 23 days. The MDCKII cells were seeded on transwell plates with a density of 2.0 × 10^5 cells/cm^2 and grown for 4-5 days to form a confluent monolayer. Bidirectional transport assays for Caco-2 and MDCK II cells were performed by adding silybin (10 μM) in assay buffer into either the apical (AP; A-to-B) or basolateral (BL; […] For inhibition studies, Caco-2 or MDCK II cell monolayers in both apical and basolateral chambers were preincubated with the inhibitor for 30 min. The fluorescence intensity of the sample collected from the AP or BL side was immediately detected in a 96-well black plate by the Microplate UV/VIS spectrophotometer (TECAN Infinite […], Männedorf, Switzerland). For liquid chromatography tandem-mass spectrometry (LC-MS/MS) analysis, the sample (100 μl) was mixed with methanol (50 μl) containing internal standard (25 ng/ml) and was stored at -80°C. The formula for calculating apparent permeability coefficient (Papp) values is as follows: (1) […] where dQ/dt (mM/s) represents the rate of permeation of the drug across the cells, C0 (mM) refers to the concentration in the donor compartment at time zero calculated from dosing solution, and A (cm^2) refers to the area of the cell monolayer. Papp (B-A) is the Papp value measured in the B to A direction, and Papp (A-B) is the Papp value measured in the A to B direction. The efflux ratio is given as ER = Papp (B to A)/Papp (A to B).

[1] = ref Lai et al., 2003, cited from earlier work
[2] = test system: CCl4-induced liver injury model; experiment: CCl4-induced acute liver injury in rats; assay type: in vivo, SD rats; design: Nerosis (histologic score, liver H&E) / Haemorrhage (histologic score, liver H&E) / Inflammation (histologic score, liver H&E) / Steatosis (histologic score, liver H&E): scale not given here
Experimental: Male SD rats were randomly divided into seven groups: […] (2) Group II, given blank vehicle p.o. for 7 days; (3) Group III, treatment with silybin (100 mg/kg bodyweight, p.o.) for 7 days; […] After 24 h of CCl4 treatment, all rats were sacrificed under ether anesthesia. Blood samples were collected from the abdominal aorta for biochemical estimations. The liver was immediately removed and weighed with a large portion of the liver frozen in liquid nitrogen. The pathological liver changes were examined by hematoxylin and eosin (H&E) staining, which was performed by a pathologist who was blinded to this study. The serum levels of ALT, AST, AKP, and SOD as well as the cytokines TNF- α, IL-6, and IL-1β were detected by the assay kit, according to the manufacturer’s instructions.

[3] = test system: sandwich-cultured rat hepatocytes; experiment: Biliary excretion in sandwich-cultured rat hepatocytes (SCH); assay type: in vitro ADME
Experimental: Sandwich-cultured rat hepatocytes (SCHs) model was established based on a previously described method with minor modifications ([Swift et al., 2010]). In brief, primary rat hepatocytes were prepared from male Sprague Dawley (SD) rats (220–270 g) using collagenase perfusion as described previously ([Liu et al., 1999]) and then were plated on 6-well plates at a density of 7.4 × 10^5 cells/2 ml/well. Approximately 24 h later, hepatocytes were overlaid with 2 ml of BD Matrigel basement membrane matrix in DMEM (0.25 mg/ml) containing 1% (v/v) insulin/transferrin/selenium culture supplement, […], 2 mM L-glutamine, and 1% penicillin-streptomycin. Hepatocytes were cultured for 4 days with daily medium replacements until the canalicular network was extensively formatted between the cells before the experiment. Evaluation of biliary excretion in SCHs was carried out according to a previously described method ([Liu et al., 1999]). […] Samples were quantified by LC-MS/MS analysis, and the transport function was normalized to the protein content of the hepatocytes. […] Later, the residues were reconstituted with 60 μl of 30% methanol in water containing 1% ascorbic acid, and an aliquot of 10 μl of final solution after centrifugation was analyzed by LC-MS/MS. […] The quantitative linear range for silybin A and B was 5 to 12500 ng/ml.

BCRP = target: T2, BCRP (Homo sapiens, UniProt Q9UNQ0); experiment: Bidirectional transport of pheophorbide A in MDCKII-BCRP cells; assay type: cell-based; conditions: dog, absence of inhibitor
T2 construct: host or cells: MDCK II (canine kidney) cells transfected with BCRP
T2 sequence (Q9UNQ0 1-655): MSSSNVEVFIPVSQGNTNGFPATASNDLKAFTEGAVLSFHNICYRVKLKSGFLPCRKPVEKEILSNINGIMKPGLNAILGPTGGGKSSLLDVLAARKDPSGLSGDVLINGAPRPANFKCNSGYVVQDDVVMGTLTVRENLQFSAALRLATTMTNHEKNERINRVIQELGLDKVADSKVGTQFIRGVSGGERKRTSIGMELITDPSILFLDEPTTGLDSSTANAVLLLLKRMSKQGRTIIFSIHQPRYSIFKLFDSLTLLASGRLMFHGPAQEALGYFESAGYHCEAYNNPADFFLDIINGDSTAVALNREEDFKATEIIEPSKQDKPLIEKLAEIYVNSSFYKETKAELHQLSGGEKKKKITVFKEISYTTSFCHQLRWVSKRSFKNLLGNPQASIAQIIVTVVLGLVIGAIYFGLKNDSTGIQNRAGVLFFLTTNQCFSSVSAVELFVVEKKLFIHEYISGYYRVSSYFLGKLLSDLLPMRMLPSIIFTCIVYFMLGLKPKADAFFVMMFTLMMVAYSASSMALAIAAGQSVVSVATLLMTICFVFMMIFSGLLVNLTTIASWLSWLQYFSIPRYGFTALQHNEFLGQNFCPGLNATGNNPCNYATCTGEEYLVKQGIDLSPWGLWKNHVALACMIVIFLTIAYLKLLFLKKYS
Experimental: (§2) Human colon epithelial cell line (Caco-2) was purchased from American Type Culture Collection (Manassas, VA, United States) and frozen at -80°C. Wild type MDCK II, MDR1-MDCK II, BCRP-MDCK II, and MRP2-MDCK II cells were kindly supplied by the Netherlands Cancer Institute (Amsterdam, Netherlands). […] The Caco-2 cells were cultured at 37°C/5% CO2 in Dulbecco’s modified Eagle’s medium (DMEM) supplemented with 10% fetal bovine serum, 1% nonessential amino acids, and 1% penicillin-streptomycin. The Caco-2 cells were seeded onto polyester filter membranes in a 12-well Transwell® plate (Corning Costar Co., NY, United States) with 0.6 × 10^5 cells/cm^2. […]
(§3) For inhibition studies, Caco-2 or MDCK II cell monolayers in both apical and basolateral chambers were preincubated with the inhibitor for 30 min. The fluorescence intensity of the sample collected from the AP or BL side was immediately detected in a 96-well black plate by the Microplate UV/VIS spectrophotometer (TECAN Infinite M200 PRO, Männedorf, Switzerland). […]
as §1, with “monolayer. Papp (B-A) is the Papp value measured in the B to A direction, and Papp (A-B) is the Papp value measured in the A to B direction.” for “monolayer.”

MDR1 = target: T3, MDR1 (Homo sapiens, UniProt P08183); experiment: Bidirectional transport of Rho123 in MDCKII-MDR1 cells; assay type: cell-based; conditions: dog, MDCK-MDR1, absence of inhibitor
T3 construct: host or cells: MDCK II (canine kidney) cells transfected with MDR1
T3 sequence (P08183 whole entry): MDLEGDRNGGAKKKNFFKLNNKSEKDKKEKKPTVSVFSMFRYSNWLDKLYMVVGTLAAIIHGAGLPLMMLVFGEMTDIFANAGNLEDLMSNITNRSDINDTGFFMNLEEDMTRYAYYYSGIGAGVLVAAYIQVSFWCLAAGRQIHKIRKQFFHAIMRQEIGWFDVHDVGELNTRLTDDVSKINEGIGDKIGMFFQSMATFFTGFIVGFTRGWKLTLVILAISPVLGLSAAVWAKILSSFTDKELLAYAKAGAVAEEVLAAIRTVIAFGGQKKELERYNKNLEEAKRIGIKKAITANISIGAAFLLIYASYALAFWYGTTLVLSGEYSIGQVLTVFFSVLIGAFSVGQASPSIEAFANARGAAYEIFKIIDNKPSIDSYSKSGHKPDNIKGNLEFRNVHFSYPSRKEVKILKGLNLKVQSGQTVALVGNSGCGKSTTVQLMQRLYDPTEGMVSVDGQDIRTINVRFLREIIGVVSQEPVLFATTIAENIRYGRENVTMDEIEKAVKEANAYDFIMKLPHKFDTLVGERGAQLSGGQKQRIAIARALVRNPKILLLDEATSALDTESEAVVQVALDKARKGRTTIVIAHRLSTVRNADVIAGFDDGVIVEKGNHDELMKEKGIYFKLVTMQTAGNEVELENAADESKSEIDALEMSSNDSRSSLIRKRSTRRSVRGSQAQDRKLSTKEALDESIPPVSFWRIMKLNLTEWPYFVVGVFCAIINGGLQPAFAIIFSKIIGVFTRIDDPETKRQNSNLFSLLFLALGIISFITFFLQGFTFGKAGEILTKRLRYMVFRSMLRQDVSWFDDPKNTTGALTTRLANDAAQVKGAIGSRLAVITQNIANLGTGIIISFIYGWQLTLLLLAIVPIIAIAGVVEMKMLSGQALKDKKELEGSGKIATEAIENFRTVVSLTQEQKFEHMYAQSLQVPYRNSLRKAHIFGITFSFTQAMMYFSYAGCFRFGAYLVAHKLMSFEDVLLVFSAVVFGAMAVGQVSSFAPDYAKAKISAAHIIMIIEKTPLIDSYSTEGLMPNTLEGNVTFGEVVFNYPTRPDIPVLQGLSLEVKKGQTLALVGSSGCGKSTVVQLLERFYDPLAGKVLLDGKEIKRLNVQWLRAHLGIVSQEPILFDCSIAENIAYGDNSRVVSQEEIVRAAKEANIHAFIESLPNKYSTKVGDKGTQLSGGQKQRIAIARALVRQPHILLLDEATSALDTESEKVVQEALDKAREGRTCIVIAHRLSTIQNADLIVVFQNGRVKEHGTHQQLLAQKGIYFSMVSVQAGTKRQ
Experimental: as §2, §3
as §1, with “monolayer. Papp (B-A) is the Papp value measured in the B to A direction, and Papp (A-B) is the Papp value measured in the A to B direction.” for “monolayer.”

[4] = 100 mg/kg p.o. 7 days, single agent, CCl4 on day 7

efflux ratio of CDCFDA (MRP2): 3.82 ± 0.51
Compound: 5(6)-Carboxy-2′,7′-dichlorofluorescein diacetate [CDCFDA]

Compound: O=c1cc(-c2ccccc2)oc2cc(O)c(O)c(O)c12 [baicalein, 5,6,7-trihydroxyflavone]
lowest effective dosage inhibiting efflux transport of silybin (Caco-2 cells): 0.5 µM | glucuronides/sulfates of baicalein in the plasma or cell ([1]; after oral administration or dosing in the Caco-2 cell model, Li et al., 2012): 75.7% | absolute absorption ([1]; passive diffusion): 40% | Haemorrhage (histologic score, liver H&E) [2, 4]: 2.2±0.4 | Inflammation (histologic score, liver H&E) [2, 4]: 2.2±0.8 | Nerosis (histologic score, liver H&E) [2, 4]: 3.0±0.6 | Steatosis (histologic score, liver H&E) [2, 4]: 2.3±0.8 | protection of liver injury by baicalein itself ([2]; CCl4-induced acute liver injury model): failed to show significant benefits | reduction of the biliary excretion of silybin conjugates ([3]; baicalein 25 μM): ~90%

Compound: O=C(O)[C@H]1O[C@@H](Oc2cc3oc(-c4ccccc4)cc(=O)c3c(O)c2O)[C@H](O)[C@@H](O)[C@@H]1O [baicalin]
relative absorption compared with baicalein ([1]; after oral administration): 65%

efflux ratio at 180 min (BCRP): 2.82 ± 0.13
Compound: C=Cc1c(C)c2cc3nc(c4c5[nH]c(cc6nc(cc1[nH]2)C(C)=C6CC)c(C)c5C(=O)[C@@H]4C(=O)OC)[C@@H](CCC(=O)O)[C@@H]3C [pheophorbide A]

Compound: CN(C)C(=O)CCSC(SCCC(=O)O)c1cccc(/C=C/c2ccc3ccc(Cl)cc3n2)c1 (centres unmarked) [MK571]
effect on biliary excretion of silybin and its conjugates ([3]; MK571 50 μM, positive control): significantly inhibited

efflux ratio at 180 min (MDR1): 3.68 ± 0.44
Compound: COC(=O)c1ccccc1-c1c2ccc(=N)cc-2oc2cc(N)ccc12 [Rho123, Rhodamine 123]
